Test results taken from publication PMC4634248 (Influenza and Other Respiratory Viruses, 2013).
“Also recorded” adds a separate entry of the source.

System: NA activity of A(H1N1)pdm09 viruses with the H275Y substitution
Format: biochemical, influenza A(H1N1)pdm09 virus

SMILES	IC50 values of H275Y mutants relative to those of viruses with 275H	resistance / sensitivity of H275Y mutant viruses to the NA inhibitor	fold increased IC50 values (decreased susceptibility) of H275Y mutant viruses compared with 275H
[H]/N=C(\N)N[C@H]1C=C(C(=O)O)O[C@@H]([C@H](OC)[C@H](O)CO)[C@@H]1NC(C)=O [laninamivir]	comparable	sensitive	–
CCC(CC)O[C@@H]1C=C(C(=O)O)C[C@H](N)[C@H]1NC(C)=O [oseltamivir, oseltamivir carboxylate]	–	resistance; also recorded: resistant	about 400 fold
CCC(CC)[C@H](NC(C)=O)[C@@H]1[C@H](O)[C@@H](C(=O)O)C[C@H]1N=C(N)N [peramivir]	–	resistance; also recorded: resistant	~140 fold
CC(=O)N[C@H]1[C@H]([C@H](O)[C@H](O)CO)OC(C(=O)O)=C[C@@H]1N=C(N)N [zanamivir]	comparable	sensitive	–
